Patent US20140178898A1, “Method for Detecting Fat-Reducing Compounds” (National Central University, priority 2012, published 2014)

Key:
Type in all cases: cell-based
3T3-L1 adipocytes [1] = assay: 2-deoxyglucose (2-DOG) uptake assay, EGCG alone
Description: (§1) In the first step (S1), which provides a clone of adipocytes to be cultured on a culture dish, the adipocytes are 3T3-L1 adipocytes (American Type Culture Collection, Manassas, Va.). 3T3-L1 adipocytes are differentiated from 3T3-L1 preadipocytes. To obtain the adipocytes, preadipocytes are seeded at a number of 6×10^4 cells per well on a sterile 12-well plate. After 3 and 5 days of the plating, the medium is changed and replaced with a new medium containing a differentiation agent, respectively. Day 0 of differentiating cells is set at the day when the differentiating agent is added in the beginning. The medium is the Dulbecco's Modified Eagle's Medium (DMEM) containing 10% fetal bovine serum (FBS), 100 U/ml of penicillin, and 100 μg/ml streptomycin. The differentiation agent is a cocktail solution containing a final concentration of 0.5 mM 3-Isobutyl-1-methylxanthine (IBMX), 5 μg/ml insulin, and 1 μM dexamethasone (DEX). After the 2-day incubation of the differentiation agent, the medium is changed to DMEM containing 10% FBS and 5 μg/ml insulin for an additional 4 days, and it is replaced with a new medium every 2 days. Day 6 differentiating cells are grown in DMEM containing 10% FBS for an additional 4 days. The medium is changed every 2 days. A total of 10 days is used for the process of differentiation to obtain the differentiated adipocytes and the cells are used for later experiments.
(§2) The first example of the present invention is to show a use of 2-deoxyglucose uptake assay for detecting the transportation activity of glucose transporter protein in the adipocytes (FIG. 2). This purpose is also to clarify the effect of different concentrations of EGCG on the IGF-I-induced and IGF-II-induced glucose uptake. At the first, the different concentrations of EGCG are added into the adipocytes, such as 1, 2, 5, 10, 20 and 50 μM. The duration of the EGCG pretreatment is defined as a first time and it is 120 minutes, wherein the first time period can range from 30 to 120 minutes, but it is not limited thereto. Then, the exposed time of 10 minutes to 10 nM IGF-I or 10 nM IGF-II is defined as a second time, wherein the second time can be 5 minutes shorter or last for 30 minutes, but it is not limited thereto. […] Then, 500 μl of RadioImmunoPrecipitation Assay (RIPA) buffer is added for fracturing the cells; 450 μl of cell solution is collected to evenly mix with 4 ml of scintillation liquid in a vial for a detection of radioactivity through a β-counter.
This invention provides a second example for clarifying the time course effects of EGCG on the IGF-stimulated glucose uptake in adipocytes (FIG. 3). […] After the incubation, the radioactivity is measured to indicate the transportation activity of glucose transporter protein in the adipocytes.

3T3-L1 adipocytes [2] = assay: 2-deoxyglucose (2-DOG) uptake assay, IGF-I-stimulated glucose uptake; details: for IGF-I-stimulated increases in levels of adipocyte glucose uptake: then 10 nM IGF-I 10 minutes (FIG. 2A)
Description: as §1, §2
(§3) This invention provides a second example for clarifying the time course effects of EGCG on the IGF-stimulated glucose uptake in adipocytes (FIG. 3). […] After the incubation, the radioactivity is measured to indicate the transportation activity of glucose transporter protein in the adipocytes. […]

3T3-L1 adipocytes [3] = assay: 2-deoxyglucose (2-DOG) uptake assay, IGF-II-stimulated glucose uptake
Description: (§4) In the first step (S1), which provides a clone of adipocytes to be cultured on a culture dish, the adipocytes are 3T3-L1 adipocytes (American Type Culture Collection, Manassas, Va.). 3T3-L1 adipocytes are differentiated from 3T3-L1 preadipocytes. To obtain the adipocytes, preadipocytes are seeded at a number of 6×10^4 cells per well on a sterile 12-well plate. After 3 and 5 days of the plating, the medium is changed and replaced with a new medium containing a differentiation agent, respectively. Day 0 of differentiating cells is set at the day when the differentiating agent is added in the beginning. […]
The first example of the present invention is to show a use of 2-deoxyglucose uptake assay for detecting the transportation activity of glucose transporter protein in the adipocytes (FIG. 2). […] Then, 500 μl of RadioImmunoPrecipitation Assay (RIPA) buffer is added for fracturing the cells; 450 μl of cell solution is collected to evenly mix with 4 ml of scintillation liquid in a vial for a detection of radioactivity through a β-counter.
as §3

[4] = tested on: glucose transporter 1 (GLUT1); assay: Western blotting of GLUT1 protein in adipocyte fractions; details: EGCG in the presence and absence of IGF-I and IGF-II (FIGS. 5A, 6A)
Description: as §4, with “beginning. The medium is the Dulbecco's Modified Eagle's Medium (DMEM) containing 10% fetal bovine serum (FBS), 100 U/ml of penicillin, and 100 μg/ml streptomycin.” for “beginning.”
In the fourth step (S4), which collects the adipocytes for a detection of the expression level of at least one specific protein to be a reference value (i.e. an indicator) for reducing fat or for decreasing the glucose transport by the test compound, the specific proteins are glucose transporter 1 (GLUT1) and glucose transporter 4 (GLUT4) proteins (FIGS. 5 and 6). Levels of GLUT1 and GLUT4 protein expression in the total lysate, plasma membrane, and low-density microsome are analyzed by Western blotting. […]

[5] = tested on: glucose transporter 4 (GLUT4); assay: Western blotting of GLUT4 protein in adipocyte fractions (translocation); details: for GLUT4 protein levels in the plasma membrane of adipocytes: IGF at 10 nM (FIGS. 5B, 6B); for GLUT4 expression levels in the low-density microsome: IGF at 10 nM (FIGS. 5C, 6C)
Description: as §1
In the fourth step (S4), which collects the adipocytes for a detection of the expression level of at least one specific protein to be a reference value (i.e. an indicator) for reducing fat or for decreasing the glucose transport by the test compound, the specific proteins are glucose transporter 1 (GLUT1) and glucose transporter 4 (GLUT4) proteins (FIGS. 5 and 6). Levels of GLUT1 and GLUT4 protein expression in the total lysate, plasma membrane, and low-density microsome are analyzed by Western blotting. FIGS. 5A, 5B and 5C are presented when the culture medium is added with or without IGF-I; whereas, in FIGS. 6A, 6B and 6C, IGF-II is added to the culture medium.

Which “level of adipocyte glucose uptake” value (3T3-L1 adipocytes [1]; 20 μM EGCG alone, 0.5, 1, or 2 hours (FIG. 3A)) does the source give for (−)-epigallocatechin gallate [EGCG] here?
The value was “not”.

And the “level of adipocyte glucose uptake” value (3T3-L1 adipocytes [1]; 20 μM EGCG alone, 4 hours (FIG. 3A))?
The value was “significantly altered”.

What about the adipocyte glucose uptake (3T3-L1 adipocytes [1]; EGCG alone at 50 μM, 2 hours (FIG. 2A)) of the same substance?
The adipocyte glucose uptake was “significantly decreased”.

And the “glucose uptake in the adipocytes” value (3T3-L1 adipocytes [1]; EGCG alone at 1, 2, 5, 10, and 20 μM, 2 hours of treatment (FIG. 2A))?
The value was “does not alter”.

What about the “IGF-I-increased levels of adipocyte glucose uptake” value (3T3-L1 adipocytes [2]; 20 μM EGCG pretreatment for 0.5 hours, suppressive effect lasts for 4 hours, 10 nM IGF-I) of the same substance?
The value was “inhibits”.

What about the “IGF-I-increased level of adipocyte glucose uptake” value (3T3-L1 adipocytes [2]; 20 μM EGCG, 2-hour treatment, 10 nM IGF-I) of the same substance?
Its value is “decline to the corresponding level of glucose uptake to the control”.

What about the “IGF-I-stimulated increases in levels of adipocyte glucose uptake” value (3T3-L1 adipocytes [2]; 2-hour pretreatment with 1, 2, or 5 μM EGCG) of the same substance?
The value was “not”.

What about the “IGF-I-stimulated increases in levels of adipocyte glucose uptake” value (3T3-L1 adipocytes [2]; 2-hour pretreatment with 10, 20, and 50 μM EGCG) of the same substance?
The value was “suppresses”.

And the “increase in the level of adipocyte glucose uptake induced by IGF-II” value (3T3-L1 adipocytes [3]; 0.5, 1, 2, and 4 hours after 20 μM EGCG pretreatment, 10 nM IGF-II)?
The value was “significantly reduced”.

What about the “IGF-II-increased levels of glucose uptake in adipocytes” value (3T3-L1 adipocytes [3]; EGCG at 10, 20, and 50 μM, 2-hour pretreatment, 10 nM IGF-II (FIG. 2B)) of the same substance?
The value was “suppress”.

What about the “levels of GLUT1 protein in the total lysate of the adipocytes” value [4] of the same substance?
The value was “not altered”.

And the “levels of GLUT4 protein in the total lysate of the adipocytes” value ([5]; EGCG in the presence and absence of IGF-I and IGF-II (FIGS. 5A, 6A))?
The value was “not altered”.

What about the “IGF-increased levels of GLUT-4 protein in the plasma membrane” value ([5]; EGCG in the presence of IGF-I (FIG. 5B)) of the same substance?
The value was “inhibits”.

What about the “IGF-decreased levels of GLUT-4 protein in the low-density microsome” value ([5]; EGCG in the presence of IGF-I (FIG. 5C)) of the same substance?
The value was “blocked”.

And the “IGF-increased levels of GLUT-4 protein in the plasma membrane” value ([5]; EGCG in the presence of IGF-II (FIG. 6B))?
Its value is “inhibits”.

And the “IGF-decreased levels of GLUT-4 protein in the low-density microsome” value ([5]; EGCG in the presence of IGF-II (FIG. 6C))?
Its value is “blocked”.

And the “translocation of GLUT4 from the cytosol to plasma membrane of the adipocytes induced by IGF treatment” value ([5]; FIGS. 5B, 5C, 6B and 6C)?
Its value is “inhibited”.

What about the “GLUT-4 protein levels in the low-density microsome” value ([5]; pretreatment with EGCG alone) of the same substance?
The value was “does not change”.

And the “GLUT-4 protein levels in the plasma membrane” value ([5]; pretreatment with EGCG alone)?
Its value is “does not change”.

What does the source list for “IGF-I: insulin-like growth factor I, added to adipocytes at 10 nM”?
GLUT4 protein levels in the plasma membrane of adipocytes [5]: significantly increase; GLUT4 expression levels in the low-density microsome [5]: decrease

“IGF-II: insulin-like growth factor II, added to adipocytes at 10 nM” was tested. Which “GLUT4 protein levels in the plasma membrane of adipocytes” value [5] did it give?
Its value is “significantly increase”.

And the “GLUT4 expression levels in the low-density microsome” value [5]?
Its value is “decrease”.
